According to the supplement of paper PMC10307832:

How the values were obtained:
Assay in all cases: relative viability (nuclei count vs DMSO), 5 days (fraction); higher = more cells survive
EBC-1 = test system: EBC-1
Procedure, shortened: (§1)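 Lung cancer cell lines were seeded in 1536-well plates and dosed by pin tool the next day, with either a single drug or a fixed anchor-drug dose combined with five library-drug doses (not always all listed) spaced in √10 steps. Five days later, one step fixed the cells and stained their nuclei (final 0.05% Triton X-100, 1% formaldehyde, 1 ug/ml Hoechst), and nuclei were counted on 4× images. Relative viability is the nuclei count in treated wells divided by the count in vehicle wells, and each value is the median of duplicate plates.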

NCI-H1299 = test system: NCI-H1299
Procedure, shortened: as §1

NCI-H1563 = test system: NCI-H1563
Procedure, shortened: as §1

IA-LM = test system: IA-LM
Procedure, shortened: as §1

A549 = test system: A549
Procedure, shortened: as §1

NCI-H1703 = test system: NCI-H1703
Procedure, shortened: as §1

Calu-6 = test system: Calu-6
Procedure, shortened: as §1

O=c1[nH]c2ccccc2n1C1CCN(CCCC(c2ccc(F)cc2)c2ccc(F)cc2)CC1 [Pimozide] + Cc1nc(NC(=O)N2CCC[C@H]2C(N)=O)sc1-c1ccnc(C(C)(C)C(F)(F)F)c1 [Alpelisib] (partner 2 µM)
relative viability (EBC-1; first compound 0.08 µM): 0.895
relative viability (EBC-1; first compound 0.253 µM): 0.724
relative viability (EBC-1; first compound 0.8 µM): 0.823
relative viability (EBC-1; first compound 2.53 µM): 0.796
relative viability (EBC-1; first compound 8 µM): 0.728
relative viability (NCI-H1299; first compound 0.08 µM): 1.04
relative viability (NCI-H1299; first compound 0.253 µM): 0.981
relative viability (NCI-H1299; first compound 0.8 µM): 1.04
relative viability (NCI-H1299; first compound 2.53 µM): 1.07
relative viability (NCI-H1299; first compound 8 µM): 1.12
relative viability (NCI-H1563; first compound 0.08 µM): 0.919
relative viability (NCI-H1563; first compound 0.253 µM): 0.814
relative viability (NCI-H1563; first compound 0.8 µM): 0.819
relative viability (NCI-H1563; first compound 2.53 µM): 0.798
relative viability (NCI-H1563; first compound 8 µM): 0.739
relative viability (IA-LM; first compound 0.08 µM): 0.695
relative viability (IA-LM; first compound 0.253 µM): 0.846
relative viability (IA-LM; first compound 0.8 µM): 0.666
relative viability (IA-LM; first compound 2.53 µM): 0.894
relative viability (IA-LM; first compound 8 µM): 0.853
relative viability (A549; first compound 0.08 µM): 0.727
relative viability (A549; first compound 0.253 µM): 0.762
relative viability (A549; first compound 0.8 µM): 0.678
relative viability (A549; first compound 2.53 µM): 0.707
relative viability (A549; first compound 8 µM): 0.617
relative viability (NCI-H1703; first compound 0.08 µM): 0.323
relative viability (NCI-H1703; first compound 0.253 µM): 0.325
relative viability (NCI-H1703; first compound 0.8 µM): 0.385
relative viability (NCI-H1703; first compound 2.53 µM): 0.258
relative viability (NCI-H1703; first compound 8 µM): 0.274
relative viability (Calu-6; first compound 0.08 µM): 0.938
relative viability (Calu-6; first compound 0.253 µM): 0.999
relative viability (Calu-6; first compound 0.8 µM): 0.92
relative viability (Calu-6; first compound 2.53 µM): 0.844
relative viability (Calu-6; first compound 8 µM): 0.883

O=C(O)CCCCC(CCSCc1ccccc1)SCc1ccccc1 (configuration not stated) [CPI-613] + CC1(C)CCC(c2ccc(Cl)cc2)=C(CN2CCN(c3ccc(C(=O)NS(=O)(=O)c4ccc(N[C@H](CCN5CCOCC5)CSc5ccccc5)c(S(=O)(=O)C(F)(F)F)c4)cc3)CC2)C1 [Navitoclax] (partner 0.5 µM)
relative viability (EBC-1; first compound 5 µM): 0.373
relative viability (EBC-1; first compound 15.81 µM): 0.404
relative viability (EBC-1; first compound 50 µM): 0.397
relative viability (EBC-1; first compound 158.11 µM): 0.0793
relative viability (EBC-1; first compound 500 µM): 0.0379
relative viability (NCI-H1299; first compound 5 µM): 1.05
relative viability (NCI-H1299; first compound 15.81 µM): 1.05
relative viability (NCI-H1299; first compound 50 µM): 1.06
relative viability (NCI-H1299; first compound 158.11 µM): 1.01
relative viability (NCI-H1299; first compound 500 µM): 1.04
relative viability (IA-LM; first compound 5 µM): 0.692
relative viability (IA-LM; first compound 15.81 µM): 0.707
relative viability (IA-LM; first compound 50 µM): 0.685
relative viability (IA-LM; first compound 158.11 µM): 0.0974
relative viability (IA-LM; first compound 500 µM): 0.0132
relative viability (A549; first compound 5 µM): 1.11
relative viability (A549; first compound 15.81 µM): 0.977
relative viability (A549; first compound 50 µM): 1.09
relative viability (A549; first compound 158.11 µM): 0.308
relative viability (A549; first compound 500 µM): 0.0559
relative viability (NCI-H1703; first compound 5 µM): 1.01
relative viability (NCI-H1703; first compound 15.81 µM): 0.967
relative viability (NCI-H1703; first compound 50 µM): 0.829
relative viability (NCI-H1703; first compound 158.11 µM): 0.144
relative viability (NCI-H1703; first compound 500 µM): 0.0899
relative viability (Calu-6; first compound 5 µM): 0.72
relative viability (Calu-6; first compound 15.81 µM): 0.744
relative viability (Calu-6; first compound 50 µM): 0.595
relative viability (Calu-6; first compound 158.11 µM): 0.107
relative viability (Calu-6; first compound 500 µM): 0.0529

Cc1cnc(-c2cnc(NCCNc3ccc(C#N)cn3)nc2-c2ccc(Cl)cc2Cl)[nH]1 + Cc1nc(NC(=O)N2CCC[C@H]2C(N)=O)sc1-c1ccnc(C(C)(C)C(F)(F)F)c1 [Alpelisib] (partner 2 µM)
relative viability (EBC-1; first compound 0.08 µM): 0.796
relative viability (EBC-1; first compound 0.253 µM): 0.782
relative viability (EBC-1; first compound 0.8 µM): 0.78
relative viability (EBC-1; first compound 2.53 µM): 0.812
relative viability (NCI-H1299; first compound 0.08 µM): 1.01
relative viability (NCI-H1299; first compound 0.253 µM): 0.992
relative viability (NCI-H1299; first compound 0.8 µM): 1.1
relative viability (NCI-H1299; first compound 2.53 µM): 0.996
relative viability (NCI-H1563; first compound 0.08 µM): 1.02
relative viability (NCI-H1563; first compound 0.253 µM): 0.9
relative viability (NCI-H1563; first compound 0.8 µM): 0.946
relative viability (NCI-H1563; first compound 2.53 µM): 0.913
relative viability (IA-LM; first compound 0.08 µM): 0.837
relative viability (IA-LM; first compound 0.253 µM): 0.77
relative viability (IA-LM; first compound 0.8 µM): 0.86
relative viability (IA-LM; first compound 2.53 µM): 0.826
relative viability (A549; first compound 0.08 µM): 0.853
relative viability (A549; first compound 0.253 µM): 0.753
relative viability (A549; first compound 0.8 µM): 0.818
relative viability (A549; first compound 2.53 µM): 0.94
relative viability (NCI-H1703; first compound 0.08 µM): 0.329
relative viability (NCI-H1703; first compound 0.253 µM): 0.312
relative viability (NCI-H1703; first compound 0.8 µM): 0.37
relative viability (NCI-H1703; first compound 2.53 µM): 0.535
relative viability (Calu-6; first compound 0.08 µM): 0.946
relative viability (Calu-6; first compound 0.253 µM): 0.924
relative viability (Calu-6; first compound 0.8 µM): 0.934
relative viability (Calu-6; first compound 2.53 µM): 0.822

O=c1[nH]c2ccccc2n1C1CCN(CCCC(c2ccc(F)cc2)c2ccc(F)cc2)CC1 [Pimozide] + CS(=O)(=O)N1CCN(Cc2cc3nc(-c4cccc5[nH]ncc45)nc(N4CCOCC4)c3s2)CC1 [Pictilisib] (partner 1 µM)
relative viability (EBC-1; first compound 0.08 µM): 0.393
relative viability (EBC-1; first compound 0.253 µM): 0.37
relative viability (EBC-1; first compound 0.8 µM): 0.364
relative viability (EBC-1; first compound 2.53 µM): 0.269
relative viability (EBC-1; first compound 8 µM): 0.27
relative viability (NCI-H1299; first compound 0.08 µM): 0.788
relative viability (NCI-H1299; first compound 0.253 µM): 0.729
relative viability (NCI-H1299; first compound 0.8 µM): 0.666
relative viability (NCI-H1299; first compound 2.53 µM): 0.745
relative viability (NCI-H1299; first compound 8 µM): 0.703
relative viability (NCI-H1563; first compound 0.08 µM): 0.654
relative viability (NCI-H1563; first compound 0.253 µM): 0.646
relative viability (NCI-H1563; first compound 0.8 µM): 0.667
relative viability (NCI-H1563; first compound 2.53 µM): 0.642
relative viability (NCI-H1563; first compound 8 µM): 0.637
relative viability (IA-LM; first compound 0.253 µM): 0.28
relative viability (IA-LM; first compound 0.8 µM): 0.288
relative viability (IA-LM; first compound 2.53 µM): 0.404
relative viability (IA-LM; first compound 8 µM): 0.438
relative viability (A549; first compound 0.08 µM): 0.524
relative viability (A549; first compound 0.253 µM): 0.472
relative viability (A549; first compound 0.8 µM): 0.494
relative viability (A549; first compound 2.53 µM): 0.385
relative viability (A549; first compound 8 µM): 0.448
relative viability (NCI-H1703; first compound 0.08 µM): 0.24
relative viability (NCI-H1703; first compound 0.253 µM): 0.273
relative viability (NCI-H1703; first compound 0.8 µM): 0.296
relative viability (NCI-H1703; first compound 2.53 µM): 0.264
relative viability (NCI-H1703; first compound 8 µM): 0.246
relative viability (Calu-6; first compound 0.08 µM): 0.952
relative viability (Calu-6; first compound 0.253 µM): 0.984
relative viability (Calu-6; first compound 0.8 µM): 0.808
relative viability (Calu-6; first compound 2.53 µM): 0.84
relative viability (Calu-6; first compound 8 µM): 0.872
